Test results from ChEMBL document CHEMBL1201862, “PubChem BioAssay data set” (2004).
Activity calls are given as the source filed them.

Legend:
[1] = target: Albumin (Bos taurus, UniProt P02769); test: Counterscreen for inhibitors of T-cell receptor (TCR)-CD3 interaction: Fluorescence-based biochemical high throughput dose response assay to identify inhibitors of T-cell receptor (TCR)-CD3 interaction using a TAMRA-labeled BSA probe.; type: functional
[2] = general mammalian cell viability loss – inhibitor set, cherry-pick, set 2, cytotoxicity control for miR-122 modulator project, dose response (AID 720697); type: functional, cell-based
[3] = NIH-3T3 fibroblast cytotoxicity, dose response, cytotoxicity control, cell-based, fluorescence, Alamar Blue, secondary assay (AID 2327); type: functional;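 note: NIH-3T3 mouse fibroblasts cultured with fluconazole at 8 µg/mL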
[4] = fluconazole-exposed Candida albicans growth modulators – fluorescence, retest, confirmation (AID 2467); type: functional, cell-based
[5] = target: T1, Short transient receptor potential channel 4 (Mus musculus, UniProt Q9QUQ5); test: calcium entry via TRPC4 opening agents – cell-based, HEK293 TRPC4/mu-opioid, Fluo-4 calcium, dose response (AID 434937); type: functional
T1 sequence (Q9QUQ5 whole entry): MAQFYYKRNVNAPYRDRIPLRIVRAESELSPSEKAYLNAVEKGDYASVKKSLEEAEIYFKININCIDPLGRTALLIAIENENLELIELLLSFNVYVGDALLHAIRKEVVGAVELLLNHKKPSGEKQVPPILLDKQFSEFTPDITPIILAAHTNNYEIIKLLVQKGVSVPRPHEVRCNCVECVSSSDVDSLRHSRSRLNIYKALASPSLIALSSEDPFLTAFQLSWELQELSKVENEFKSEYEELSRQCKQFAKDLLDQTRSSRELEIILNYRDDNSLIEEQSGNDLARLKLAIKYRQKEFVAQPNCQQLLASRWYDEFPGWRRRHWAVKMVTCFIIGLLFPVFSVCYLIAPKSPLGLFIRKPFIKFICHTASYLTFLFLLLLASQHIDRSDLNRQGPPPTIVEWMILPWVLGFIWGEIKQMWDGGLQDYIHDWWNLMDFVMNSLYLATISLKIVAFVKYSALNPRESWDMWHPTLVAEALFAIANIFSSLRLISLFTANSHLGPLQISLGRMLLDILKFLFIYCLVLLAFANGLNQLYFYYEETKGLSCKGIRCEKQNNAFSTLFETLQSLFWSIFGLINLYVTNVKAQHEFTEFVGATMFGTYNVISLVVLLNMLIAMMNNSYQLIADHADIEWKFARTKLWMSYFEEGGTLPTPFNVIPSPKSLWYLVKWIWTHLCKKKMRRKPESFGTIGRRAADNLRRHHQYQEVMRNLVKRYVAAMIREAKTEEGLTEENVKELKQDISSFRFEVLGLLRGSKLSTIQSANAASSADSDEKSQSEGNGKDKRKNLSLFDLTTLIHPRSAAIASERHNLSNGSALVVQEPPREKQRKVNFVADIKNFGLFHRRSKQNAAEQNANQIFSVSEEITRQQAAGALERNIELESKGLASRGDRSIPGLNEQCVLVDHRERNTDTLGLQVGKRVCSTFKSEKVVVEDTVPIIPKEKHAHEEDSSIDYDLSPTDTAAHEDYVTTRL

[6] = target: T2, High affinity choline transporter 1 (Homo sapiens, UniProt Q9GZV3); test: human choline transporter blockers, potency – cell-based, 5-point CRC, membrane potential dye, dose response (AID 504840); type: functional
T2 sequence (Q9GZV3 whole entry): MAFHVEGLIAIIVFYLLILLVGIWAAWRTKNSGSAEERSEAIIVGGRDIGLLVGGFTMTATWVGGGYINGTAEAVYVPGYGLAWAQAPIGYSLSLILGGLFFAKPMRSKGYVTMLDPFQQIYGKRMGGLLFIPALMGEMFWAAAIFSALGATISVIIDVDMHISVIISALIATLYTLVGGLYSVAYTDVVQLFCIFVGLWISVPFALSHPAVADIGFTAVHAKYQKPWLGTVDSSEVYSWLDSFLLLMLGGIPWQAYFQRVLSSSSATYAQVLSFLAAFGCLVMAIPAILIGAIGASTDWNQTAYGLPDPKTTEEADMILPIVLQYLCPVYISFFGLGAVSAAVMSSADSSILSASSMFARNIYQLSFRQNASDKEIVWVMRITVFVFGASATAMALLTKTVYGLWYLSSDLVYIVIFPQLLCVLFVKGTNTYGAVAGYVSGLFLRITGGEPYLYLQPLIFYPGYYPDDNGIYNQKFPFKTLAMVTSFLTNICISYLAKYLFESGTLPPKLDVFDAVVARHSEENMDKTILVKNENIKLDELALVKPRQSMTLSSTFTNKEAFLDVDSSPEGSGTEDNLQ

[7] = target: T2, High affinity choline transporter 1; test: human choline transporter blockers, potency – cell-based, 10-point CRC, membrane potential dye, dose response (AID 588401); type: functional;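 note: membrane potential dye fluorescence of choline-evoked depolarization via CHT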
[8] = target: T2, High affinity choline transporter 1; test: human choline transporter radiolabel uptake blockers – cell-based, 3H-choline uptake, CHT LV-AA trafficking mutant, CRC, dose response (AID 602208); type: functional
[9] = target: T3, Methionyl-tRNA synthetase, putative (Trypanosoma brucei brucei, UniProt Q38C91); type: functional, Trypanosoma brucei brucei strain 927/4 GUTat10.1
[10] = Counterscreen for inhibitors of Trypanosoma brucei methionyl tRNA synthetase (MetRS): Luminescence-based cell-based high throughput dose response assay to identify compounds that are cytotoxic to Jurkat human T lymphocyte cells.; type: functional
[11] = target: T3, Methionyl-tRNA synthetase, putative; type: functional, Trypanosoma brucei brucei strain 927/4 GUTat10.1; remark: listed apart in the source
[12] = microbe, parasite or virus in culture; type: functional; conditions: Mycobacterium tuberculosis
[13] = target: T4, Low molecular weight phosphotyrosine protein phosphatase (Homo sapiens, UniProt P24666); type: functional; conditions: read-out: IC50_Mean
[14] = target: T4, Low molecular weight phosphotyrosine protein phosphatase; type: functional; conditions: read-out: IC50_Mean; remark: listed apart in the source
[15] = target: Fructose-bisphosphate aldolase (Mycobacterium tuberculosis, UniProt P9WQA3); test: Fluorescence-based biochemical high throughput dose response assay for inhibitors of the fructose-bisphosphate aldolase (FBA) of M. tuberculosis.; type: functional
[16] = target: Protein Wnt-3a (Mus musculus, UniProt P27467); test: antagonism of Wnt3a pathway luciferase reporter – Wnt-LIGHT cells, luminescence, selectivity assay for Gli-SUFU antagonist project, dose response (AID 651570); type: functional; conditions: read-out: IC50_Mean;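 note: Wnt-LIGHT reporter cells stimulated with conditioned medium from Wnt3a-producing cells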
[17] = target: T5, Probable nicotinate-nucleotide adenylyltransferase (Staphylococcus aureus (strain N315), UniProt P65502); type: functional, Staphylococcus aureus subsp. aureus N315;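 for IC50 Mean: confirmatory dose-response retesting of NadD inhibitor hits first found in an ultra-high-throughput screen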
[18] = target: T5, Probable nicotinate-nucleotide adenylyltransferase; type: functional, Staphylococcus aureus subsp. aureus N315; conditions: read-out: IC50_Mean
[19] = Fluorescence-based cell-based high throughput dose response assay for inhibitors of the interaction of nucleotide-binding oligomerization domain containing 2 (NOD2) and the receptor-interacting serine-threonine kinase 2 (RIPK2).; type: functional; conditions: Homo sapiens
[20] = target: T6, Rac GTPase-activating protein 1 (Homo sapiens, UniProt Q9H0H5); test: blockers of MgcRacGAP-driven Rac1 GTP hydrolysis – biochemical, ADP Hunter fluorescence, primary and confirmatory, confirmation (AID 624330); type: functional
T6 sequence (Q9H0H5 whole entry): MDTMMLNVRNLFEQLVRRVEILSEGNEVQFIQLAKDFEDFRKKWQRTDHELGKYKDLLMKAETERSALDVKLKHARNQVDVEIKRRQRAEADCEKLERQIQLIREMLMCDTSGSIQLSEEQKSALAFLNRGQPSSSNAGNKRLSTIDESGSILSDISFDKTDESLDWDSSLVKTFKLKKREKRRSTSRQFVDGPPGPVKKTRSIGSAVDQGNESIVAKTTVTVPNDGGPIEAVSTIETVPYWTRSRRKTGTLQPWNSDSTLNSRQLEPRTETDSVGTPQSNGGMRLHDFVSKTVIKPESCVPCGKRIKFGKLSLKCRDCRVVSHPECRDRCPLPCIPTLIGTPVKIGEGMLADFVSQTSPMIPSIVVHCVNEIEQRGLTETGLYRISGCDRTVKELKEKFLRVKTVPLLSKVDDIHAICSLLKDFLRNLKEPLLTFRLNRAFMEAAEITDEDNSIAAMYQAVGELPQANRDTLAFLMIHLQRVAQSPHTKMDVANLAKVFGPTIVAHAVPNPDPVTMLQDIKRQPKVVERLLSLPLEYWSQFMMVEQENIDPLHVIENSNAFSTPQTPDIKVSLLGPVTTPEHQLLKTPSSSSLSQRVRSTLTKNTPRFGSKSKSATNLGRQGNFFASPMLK

T5 sequence (P65502 whole entry): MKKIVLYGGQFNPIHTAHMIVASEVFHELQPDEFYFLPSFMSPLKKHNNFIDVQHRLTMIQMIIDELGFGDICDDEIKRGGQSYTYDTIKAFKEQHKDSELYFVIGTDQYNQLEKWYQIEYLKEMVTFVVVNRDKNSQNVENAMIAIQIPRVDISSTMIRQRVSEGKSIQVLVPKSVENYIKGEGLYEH
T4 sequence (P24666 whole entry): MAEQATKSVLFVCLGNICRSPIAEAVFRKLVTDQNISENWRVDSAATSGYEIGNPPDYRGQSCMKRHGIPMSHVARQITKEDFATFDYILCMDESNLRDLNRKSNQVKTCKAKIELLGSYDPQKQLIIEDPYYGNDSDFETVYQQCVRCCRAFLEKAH
T3 sequence (Q38C91 whole entry): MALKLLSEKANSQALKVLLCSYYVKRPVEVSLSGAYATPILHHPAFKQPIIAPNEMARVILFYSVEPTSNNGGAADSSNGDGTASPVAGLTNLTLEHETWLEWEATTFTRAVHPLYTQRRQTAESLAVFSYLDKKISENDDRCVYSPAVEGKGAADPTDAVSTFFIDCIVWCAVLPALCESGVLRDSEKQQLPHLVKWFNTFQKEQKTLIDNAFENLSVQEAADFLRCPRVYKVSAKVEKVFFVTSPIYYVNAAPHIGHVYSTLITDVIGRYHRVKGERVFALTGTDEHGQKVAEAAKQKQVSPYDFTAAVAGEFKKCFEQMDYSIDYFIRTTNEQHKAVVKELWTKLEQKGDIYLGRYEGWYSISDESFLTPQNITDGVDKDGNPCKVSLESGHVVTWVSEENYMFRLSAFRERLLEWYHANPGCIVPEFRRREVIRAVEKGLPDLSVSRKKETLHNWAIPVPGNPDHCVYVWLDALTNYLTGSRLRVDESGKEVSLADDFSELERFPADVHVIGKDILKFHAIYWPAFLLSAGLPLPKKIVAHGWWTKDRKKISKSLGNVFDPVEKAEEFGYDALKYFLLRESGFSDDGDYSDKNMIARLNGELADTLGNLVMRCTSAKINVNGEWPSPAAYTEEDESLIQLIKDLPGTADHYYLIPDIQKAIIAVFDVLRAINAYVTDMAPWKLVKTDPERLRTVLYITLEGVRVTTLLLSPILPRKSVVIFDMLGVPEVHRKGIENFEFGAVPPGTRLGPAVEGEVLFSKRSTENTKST
Fructose-bisphosphate aldolase, sequence (P9WQA3 whole entry): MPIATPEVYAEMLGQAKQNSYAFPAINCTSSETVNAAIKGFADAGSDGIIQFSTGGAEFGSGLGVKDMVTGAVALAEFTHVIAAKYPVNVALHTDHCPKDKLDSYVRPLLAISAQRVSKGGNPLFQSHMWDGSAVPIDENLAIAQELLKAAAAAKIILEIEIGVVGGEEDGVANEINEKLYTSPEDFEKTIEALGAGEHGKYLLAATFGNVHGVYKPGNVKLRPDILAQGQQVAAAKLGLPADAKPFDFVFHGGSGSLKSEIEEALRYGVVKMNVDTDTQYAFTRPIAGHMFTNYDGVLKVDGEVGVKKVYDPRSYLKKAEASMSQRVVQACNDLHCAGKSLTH
Albumin, sequence (P02769 whole entry): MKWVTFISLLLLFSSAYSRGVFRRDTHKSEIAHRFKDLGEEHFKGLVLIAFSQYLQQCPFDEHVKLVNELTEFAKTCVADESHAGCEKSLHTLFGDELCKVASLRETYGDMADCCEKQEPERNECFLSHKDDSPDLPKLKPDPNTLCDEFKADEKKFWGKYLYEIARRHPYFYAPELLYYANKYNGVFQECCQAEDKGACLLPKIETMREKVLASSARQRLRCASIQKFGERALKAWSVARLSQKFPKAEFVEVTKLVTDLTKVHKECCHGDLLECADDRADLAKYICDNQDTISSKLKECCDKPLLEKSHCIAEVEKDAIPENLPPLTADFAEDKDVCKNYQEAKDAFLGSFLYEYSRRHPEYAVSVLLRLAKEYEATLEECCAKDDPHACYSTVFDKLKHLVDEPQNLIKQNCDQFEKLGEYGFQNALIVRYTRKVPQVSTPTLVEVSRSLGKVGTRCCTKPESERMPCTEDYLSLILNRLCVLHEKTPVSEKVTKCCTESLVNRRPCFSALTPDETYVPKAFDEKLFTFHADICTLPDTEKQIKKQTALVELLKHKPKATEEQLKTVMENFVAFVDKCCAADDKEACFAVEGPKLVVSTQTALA
Protein Wnt-3a, sequence (P27467 whole entry): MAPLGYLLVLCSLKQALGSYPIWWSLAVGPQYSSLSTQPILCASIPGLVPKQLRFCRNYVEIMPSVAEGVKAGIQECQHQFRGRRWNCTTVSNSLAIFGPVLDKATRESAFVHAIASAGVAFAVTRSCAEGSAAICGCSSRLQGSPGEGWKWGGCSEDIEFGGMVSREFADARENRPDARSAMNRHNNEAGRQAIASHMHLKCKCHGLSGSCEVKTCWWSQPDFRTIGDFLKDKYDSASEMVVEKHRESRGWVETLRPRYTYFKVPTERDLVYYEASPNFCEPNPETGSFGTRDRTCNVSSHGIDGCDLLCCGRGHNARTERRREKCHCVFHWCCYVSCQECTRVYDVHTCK

O=C(NNC(=S)NC1CCCCC1)c1ccccc1O
IC50 [1]: > 94.1 µM (inactive)

CN(C(=O)c1ccccc1Cl)C1CCCCC1
AC50 [2]: 0.346 µM (active)

CC(C)(C)C(=O)NC(=S)NNC(=O)C(c1ccccc1)c1ccccc1
EC50 [3]: 5.35 µM (inconclusive) | EC50 [4]: 1.2 µM (active) | EC50 [5]: 1.06 µM (active) | IC50 [6]: 6.48 µM (active) | IC50 [7]: 4.01 µM (active)

O=C(NC1CCCCC1)c1ccc(OC2CCN(Cc3ccccn3)CC2)cc1
IC50 [6]: 1.65 µM (active) | IC50 [7]: 0.891 µM (active) | IC50 [8]: 8.43 µM (active)

Cc1cc(Cn2nc(-c3ccccc3)cc2C(=O)NCc2cccc(Br)c2)on1
IC50 [9]: 5.75 µM (active) | IC50 [10]: 83.3 µM (inactive) | IC50 [11]: 2.08 µM (active)

CC(C)Oc1ccc(-c2nc(NCC3CCCO3)c3ccccc3n2)cc1 (configuration not stated)
CC50 [12]: 29.2 µM (active) | IC50 [13]: 24.2 µM (inactive) | IC50 [14]: 18.1 µM (active)

CNC(=O)c1cc2cc(OC)ccc2oc1=O
IC50 [15]: 2.13 µM (active)

Cc1nnsc1C(=O)Nc1ccc(S(=O)(=O)N2CCC(C)CC2)cc1
IC50 [16]: 27.1 µM (inactive)

Cc1ccc(C2(SCC(N)C(=O)O)c3ccccc3-c3ccccc32)cc1 (configuration not stated)
IC50 [17]: 11 µM (active) | IC50 [18]: 32.5 µM (active)

O=C1/C(=C\c2ccccc2)CN(C(=O)CCN2CCCCC2)C/C1=C/c1ccccc1
IC50 [19]: 2.89 µM (active) | IC50 [20]: 84.9 µM (active)
